According to patent US11130780B2, “Inhibitors of growth factor activation enzymes” (Washington University, priority 2015, dated 2021):
Residues, ends and D or L forms follow the SMILES beside them. *: point of attachment. ACC = NC(=O)Cc1cc(=O)oc2cc(N*)ccc12

Assays:
Type in all cases: biochemical
hepsin [1] = biological target: T1, hepsin (Homo sapiens, UniProt P05981); test: P4-P2 substrate specificity using HyCoSuL, hepsin; design: concentration or dose not given beside the values; settings: HyCoSuL substrate library; for P2 Position % Activity Hepsin: amino acid fixed at P2 position; for P3 Position % Activity Hepsin: amino acid fixed at P3 position; for P4 Position % Activity Hepsin: amino acid fixed at P4 position
T1 construct: purchased R&D Systems 4776-SE-010
T1 sequence (P05981 163-417 limits assumed): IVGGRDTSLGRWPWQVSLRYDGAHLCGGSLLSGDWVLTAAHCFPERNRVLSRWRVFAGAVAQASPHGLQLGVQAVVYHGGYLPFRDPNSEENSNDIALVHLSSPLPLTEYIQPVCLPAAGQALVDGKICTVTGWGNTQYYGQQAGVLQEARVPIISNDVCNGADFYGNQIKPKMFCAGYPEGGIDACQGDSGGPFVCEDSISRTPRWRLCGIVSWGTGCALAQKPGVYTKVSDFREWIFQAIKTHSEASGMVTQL
T1 sequence (P05981 45-162 partner limits assumed): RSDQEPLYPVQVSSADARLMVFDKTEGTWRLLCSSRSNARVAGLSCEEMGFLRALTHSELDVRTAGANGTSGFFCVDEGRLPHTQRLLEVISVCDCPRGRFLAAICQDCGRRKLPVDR
Method: (§1) Each of the P4, P3, and P2 sublibraries were screened at the 100 μM concentration with hepsin either HGFA in a 100 μL final volume per well (99 μL of protease in buffer+1 μL of 10 mM substrates mixture). The total time of the assay was 30 minutes, however only linear portions of the progress curve (5-15 minutes) were used for velocity (RFU/s) calculations. Each sublibrary screening was repeated at least 3-times and the average value calculated from each measurement was used to create the substrate specificity matrix—the best recognized amino acid in each position was set to 100%, and other amino acids were adjusted accordingly.
(§2) Recombinant human hepsin (10 μg in 20 uL, 4776-SE-010, R&D Systems) was added to the 100 μL of activation buffer (0.1 M Tris, 0.15 M NaCl, 0.01 M CaCl2, 0.05% TRITON-X, pH=8.0) and incubated at 37° C. for 24 hours (hepsin concentration in activation buffer 2 μM). Once activated hepsin was diluted in assay buffer (0.05 M Tris, pH=9.0) to the final concentration of 4 nM and incubated at 37° C. for 15 minutes before added to a substrate.

HGFA [2] = biological target: T2, HGFA (Homo sapiens, UniProt Q04756); test: P1 substrate specificity using Ac-Ala-Arg-Leu-P1-ACC individual substrate library, HGFA; settings: substrate 5 μM; best amino acid set to 100%
T2 sequence (Q04756 408-655 limits assumed): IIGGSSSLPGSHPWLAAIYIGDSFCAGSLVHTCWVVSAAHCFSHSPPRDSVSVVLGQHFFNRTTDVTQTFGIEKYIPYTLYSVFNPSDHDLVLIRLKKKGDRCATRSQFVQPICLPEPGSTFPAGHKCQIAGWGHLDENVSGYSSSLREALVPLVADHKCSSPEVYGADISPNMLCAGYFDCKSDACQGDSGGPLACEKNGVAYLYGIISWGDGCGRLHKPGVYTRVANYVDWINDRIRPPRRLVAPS
T2 sequence (Q04756 373-407 partner limits assumed): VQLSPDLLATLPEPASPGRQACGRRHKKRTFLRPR
Method: (§3) HFGA enzyme was diluted in the assay buffer (0.15 M NaCl, 0.025 M Tris, 0.005 M CaCl2, pH=8.0) to the final concentration of 10-20 nM (depending of sublibrary) and incubated at 25° C. for 30 minutes before added to a substrate.
(§4) The protocol for both enzymes activation and incubation are as the same as in HyCoSuL screening. The P1 individual substrate library was used at the final concentration of 5 μM. The total time of the assay was 30 min, however only linear portions of the progress curve (5-15 minutes) were used for velocity (RFU/s) calculations. Each screening for hepsin either HGFA was repeated 3-times and the average value for each measurement was used to create the substrate specificity matrix.

hepsin [3] = biological target: T1, hepsin; test: P1 substrate specificity using Ac-Ala-Arg-Leu-P1-ACC individual substrate library, hepsin; settings: substrate 5 μM; best amino acid set to 100%
Method: as §2, §4

HGFA [4] = biological target: T2, HGFA; test: P4-P2 substrate specificity using HyCoSuL, HGFA; design: P3 Position % Activity HGFA / P2 Position % Activity HGFA: concentration or dose not given beside the values; P4 Position % Activity HGFA: tested at 100 µM; settings: HyCoSuL substrate library; for P2 Position % Activity HGFA: amino acid fixed at P2 position; for P3 Position % Activity HGFA: amino acid fixed at P3 position; for P4 Position % Activity HGFA: amino acid fixed at P4 position
Method: as §1, §3

P2 Position % Activity Hepsin (hepsin [1]) [%]	P3 Position % Activity Hepsin (hepsin [1]) [%]	P4 Position % Activity Hepsin (hepsin [1]) [%]	% activity, P1 position, HGFA (HGFA [2]) [%]	% activity, P1 position, Hepsin (hepsin [3]) [%]	P2 Position % Activity HGFA (HGFA [4]) [%]	P3 Position % Activity HGFA (HGFA [4]) [%]	P4 Position % Activity HGFA (HGFA [4]) [%]	Compound
57.23	70.75	80.32	100.00	100.00	2.08	43.98	23.62	CC(=O)N[C@@H](C)C(=O)N[C@@H](CCCNC(=N)N)C(=O)N[C@@H](CC(C)C)C(=O)N[C@@H](CCCNC(=N)N)C(=O)Nc1ccc2c(CC(N)=O)cc(=O)oc2c1 [Ac-Ala-Arg-Leu-Arg-ACC] (Ac-ARLR-{ACC})
0.00	48.09	18.44	0.00	0.00	0.00	9.84	7.11	D-Ala
0.00	38.75	18.48	0.00	0.00	0.00	15.16	7.38	D-Asn
0.00	17.18	1.98	0.00	0.05	0.00	5.37	2.25	D-Asp
0.00	97.80	20.13	0.00	0.00	0.00	13.84	8.03	D-Gln
0.00	34.55	2.98	0.00	0.00	0.00	3.61	2.62	D-Glu
0.00	20.14	24.76	0.00	0.00	0.00	7.08	10.56	D-Leu
0.00	64.56	49.84	0.00	0.23	0.00	21.11	17.66	D-Lys
0.00	24.92	13.15	0.00	–	0.00	15.22	8.13	D-Phe
0.00	38.88	20.45	0.00	1.08	0.00	4.96	10.30	D-Pro
11.55	54.84	21.84	0.00	0.02	0.00	10.86	7.94	D-Ser
0.00	36.69	25.74	0.00	0.24	0.00	6.45	8.61	D-Thr
0.00	24.90	1.48	0.00	0.50	0.00	87.59	7.65	D-Trp
0.00	29.94	12.66	0.00	0.23	0.00	17.32	10.09	D-Tyr
32.27	29.53	36.68	0.00	0.42	6.32	13.41	6.44	L-Cit
10.01	48.71	35.65	0.00	0.03	1.49	24.27	13.31	L-Dap
38.67	4.70	37.81	0.00	0.00	3.95	2.18	10.66	L-Hyp
11.40	68.16	22.86	0.00	0.00	1.68	16.63	6.64	L-Met(O)
62.04	24.09	40.93	0.00	0.07	45.52	19.15	11.76	L-Nle
58.40	25.85	41.99	0.00	0.14	39.80	17.60	11.78	L-Nva
78.48	79.70	84.52	0.00	0.00	0.00	54.04	20.23	L-Orn
57.96	47.00	56.24	0.00	0.24	5.83	100.00	22.07	L-hArg
